In patent publication US11406592B2, “Drug delivery methods, structures, and compositions for nasolacrimal system” (Mati Therapeutics Inc., priority 2006, dated 2022):
Blank lines part the entries; values can stand above or below the molecule they belong to.

Assays:
[1] = Bimatoprost bulk sample elution, normalized to ng per device per day; format: physicochemical; conditions: for zero order elution rate: about 90 days
Description: Bulk samples of 1% Bimatoprost having a known diameter of 0.076 cm (0.76 mm) were prepared. The height of each sample was determined from the weight and known diameter of the sample.
The calculated heights ranged from 0.33 cm to 0.42 cm. The exposed surface area on each end of each bulk sample was approximately 0.045 cm^2, providing volumes of 0.019 cm^3 and 0.015 cm^3 for the 0.42 and 0.33 cm samples, respectively. The exposed an exposed surface area of samples calculated from the height and diameter without a drug sheath was approximately 0.1 cm^2. Three formulations were evaluated: 1) silicone 4011, 1% Bimatoprost, 0% surfactant; 2) silicone 4011, 1% Bimatoprost, approximately 11% surfactant; and 3) silicone 4011, 1% Bimatoprost, approximately 33% surfactant. The elution data measured for the bulk samples with formulation 1, 2 and 3 were normalized to ng per device per day (ng/device/day) assuming a surface area of the bulk device is 0.1 cm^2 and the surface area of the clinical device is 0.00078 cm^2 (0.3 mm diameter). […] The normalized elution profile is about 10 ng per day. […] Similar formulations can be used with drug core sheaths and a shaped exposed surface of the core exposed to the tear to increase the exposed surface area as described above and deliver the drug in therapeutic amounts over an extended period.
In some embodiments, the core can comprise a 0.76 mm diameter core with an exposed surface diameter of 0.76 mm, corresponding to an exposed surface area of 0.0045 cm^2. The core can be covered with a sheath to define the exposed surface of the core as described above The normalized elution profile for such a device, based on the bulk sample data above, is approximately 6 times (0.0045 cm^2/0.00078 cm^2) the elution profile for the device with a 0.3 mm diameter exposed surface area. Thus, a zero order elution profile with an elution rate of about 60 ng per day can be obtained over a period of about 90 days. If the exposed surface area is increased to about 0.0078 cm2, for example with many of the exposed surface shapes as described above, the zero order elution rat is about 100 ng per day over a period of about 90 days. The concentration can also be increased from 1%. Similar elution profiles can be obtained with Latanoprost.

[2] = Latanoprost drug core elution study (in vitro), 7.4 pH buffer, HPLC; format: physicochemical; conditions: for Duration: calculated time when ~10% of original drug remains
Source text: Drug cores as described above have been fabricated with different cross sectional sizes of 0.006 inches, 0.012 inches, and 0.025 inches, and drug concentrations of 5%, 10% and 20% in a silicone matrix. Theses drug cores can be made with a Syringe Tube and Cartridge Assembly, Mixing Latanoprost with Silicone, and Injecting the mixture into a polyimide tube which is cut to desired lengths and sealed. The length of the drug cores were approximately 0.80 to 0.95 mm, which for a diameter of 0.012 inches (0.32 mm) corresponds to total Latanoprost content in the drug cores of approximately 3.5 μg, 7 μg and 14 μg for concentrations of 5%, 10% and 20%, respectively.
Syringe Tube and Cartridge Assembly. 1. Take polyimide tubing of three different diameters 0.006 inches, 0.0125 inches and 0.025 inches. 2. Cut polyimide tubing of different diameters to ˜15 cm length. 3. Insert Polyimide tubes into a Syringe Adapter. 4. Adhesive bond polyimide tube into luer adapter (Loctite, low viscosity UV cure). 5. Trim end of assembly. 6. Clean the cartridge assembly using distilled water and then with methanol and dry it in oven at 60° C.
Mix Latanoprost with Silicone. Prepare Latanoprost. Latanoprost is provided as a 1% solution in methylacetate. Place the appropriate amount of solution into a dish and using a nitrogen stream, evaporate the solution until only the Latanoprost remains. Place the dish with the Latanoprost oil under vacuum for 30 minutes. Combine Latanoprost with silicone. Prepare three different concentrations of Latanoprost (5%, 10% and 20%) in silicon Nusil 6385 and inject it into tubing of different diameters (0.006 in, 0.012 in and 0.025 inches) to generate 3×3 matrixes. The percent of Latanoprost to silicone is determined by the total weight of the drug matrix. Calculation: Weight of Latanoprost/(weight of Latanoprost+weight of silicone)×100=percent drug.
Inject tube. 1. Insert Cartridge and Polyimide tubes assembly into 1 ml syringe. 2. Add one drop of catalyst, (MED-6385 Curing Agent) in the syringe. 3. Force excess catalyst out of the polyimide tube with clean air. 4. Fill syringe with silicone drug matrix. 5. Inject tube with drug matrix until the tube is filled or the syringe plunger becomes too difficult to push. 6. Close off the distal end of the polyimide tube and maintain pressure until the silicone begins to solidify. 7. Allow to cure at room temperature for 12 hours. 8. Place under vacuum for 30 minutes. 9. Place tube in right size trim fixture (prepared in house to hold different size tubing) and cut drug inserts to length (0.80-0.95 mm).
Testing. Elution study (in vitro). 1. Place 10 plugs of same size and same concentration per centrifuge tube and add 1.5 ml of 7.4 pH buffer solution to it. 2. Change the solvent with fresh 7.4 pH buffer after appropriate time. 3. Take HPLC of the eluant at 210 nm with PDA detector 2996 using Sunfire C18, 3 mm×10 mm column (Waters Corporation, Milford, Mass.). Acetonitrile and water mixture is used for gradient elution. Calibration was done in house before and after each analysis, using in-house standards with precisely weighed concentration of Latanoprost. 4. Calculate the amount of drug release per day per device for different size tubings having different concentrations of Latanoprost. 5. Plot elution rate vs area and concentration for day 1 and day 14.

IOP = conditions: cited from earlier work
[3] = Latanoprost elution from drug cores of four formulations (silicone 4011, 6385 and/or NaCl); format: physicochemical; conditions: formulations A-D, non-sterile drug cores
Source text: Drug cores were manufactured as described above with Latanoprost and silicone 4011, 6385 and/or NaCl. Four formulations were manufactured as follows: A) silicone 4011, approximately 20% Latanoprost, and approximately 20% NaCL; B) silicone 4011, approximately 20% Latanoprost, and approximately 10% NaCl; C) silicone 4011, approximately 10% Latanoprost, and approximately 10% NaCl; and D) silicone 6385, approximately 20% Latanoprost. […] The results shown are for non-sterile drug cores. Similar results have been obtained with sterile drug cores of Latanoprost.

- zero order elution rate ([1]; extrapolated from bulk data to 0.76 mm exposed surface diameter (0.0045 cm^2)): about 60 ng per day
- zero order elution rate ([1]; extrapolated from bulk data to exposed surface area about 0.0078 cm2): about 100 ng per day
- normalized elution profile ([1]; silicone 4011 with 1% Bimatoprost, formulations 1-3 (0%, 11%, 33% surfactant), normalized to 0.3 mm exposed surface diameter (0.00078 cm^2)): about 10 ng per day
SMILES: CCNC(=O)CCC/C=C\C[C@@H]1[C@@H](/C=C/[C@@H](O)CCc2ccccc2)[C@H](O)C[C@@H]1O [Bimatoprost]
- release kinetics ([1]; each of formulations 1-3, from about ten days to about 90 days): approximately zero order release kinetics

- elution rate compared with the 14 μg core ([2]; 7 μg core (10%), 0.32 mm diameter, 0.95 mm long, from 10 to 20 days): comparable rates
- elution rate ([2]; 14 μg core (20%), 0.32 mm diameter, 0.95 mm long, from about 10 to 40 days): approximately 100 ng per day
- initial elution of Latanoprost from the plug ([2]; buffered saline elution system, initially): approximately 500 ng per day
- elution of Latanoprost from the plug after drop-off ([2]; buffered saline elution system, within 7-14 days, depending on initial concentration): approximately 100 ng/day
- quantity of Latanoprost released ([2]; day 1, 0.006 inch diameter core (exposed surface area 0.02 mm^2)): about 200 ng
- quantity of Latanoprost released ([2]; day 1, 0.012 inch diameter core (exposed surface area 0.07 mm^2)): ~400 ng
- quantity of Latanoprost released ([2]; day 1, 0.025 inch diameter core (exposed surface area 0.32 mm^2)): ~1200 ng
- quantity of Latanoprost released ([2]; day 14, 0.006 inch diameter core (exposed surface area 0.02 mm^2)): about 25 ng
- quantity of Latanoprost released ([2]; day 14, 0.012 inch (0.32 mm) diameter core (exposed surface area 0.07 mm^2)): ~100 ng
- quantity of Latanoprost released ([2]; day 14, 0.025 inch diameter core (exposed surface area 0.32 mm^2)): ~300 ng
- Duration ([2]; total Latanoprost content 3.5 μg): ~25 days
- Duration ([2]; total Latanoprost content 7 μg): ~45 days
- Duration ([2]; total Latanoprost content 14 μg): ~100 days
- elution rate ([3]; by 3 weeks (21 days)): about 100 ng per device per day
- initial elution rate ([3]; initial): approximately 300 ng per device per day
SMILES: CC(C)OC(=O)CCC/C=C\C[C@@H]1[C@@H](CC[C@@H](O)CCc2ccccc2)[C@H](O)C[C@@H]1O [Latanoprost]
- time effective in lowering IOP (IOP; about 200 ng of drug remaining on the eye after a drop of Xalatan): at least 24 hours
- IOP reduction relative to the 50 μg/mL QD dose (IOP; lowest doses of 12.5 μg/mL QD or 15 μg/mL BID): 60-75%
